Legend:
[1] = tested on: C. albicans; experiment: Disseminated candidiasis: mean survival and kidney infection (Study 41B); assay type: in vivo, mice; conditions: for Kidney Infection: greater than 8 logs of C. albicans, day 5
Description: Study 41B: Using a standardized inoculum (i.e., 10^8 cells/mL), the LD95 value (=14.9×10^6 cells/animal) was determined by injecting different numbers of C. albicans cells iv into mice and recording deaths at 20 days. L-Glu-L-Trp was administered ip at doses of 1, 10, 100 and 300 μg/kg in either a prophylactic or therapeutic drug regimen (abbreviated PDR or TDR, respectively). Prophylaxis consisted of 3 ip injections on 3 consecutive days, with the last injection being 3 hours before injecting the C. albicans cells iv. Therapy consisted of 10 consecutive daily ip injections starting 24 hours after the iv injection of the C. albicans cells. Mean survival was determined at 10 days, and as an independent monitor for infection, kidneys were removed from nine parallel groups (12 animals each) of infected animals at 5 days and after microbiological isolation the numbers of C. albicans cultures counted.

[2] = tested on: respiratory viral infections; experiment: Nose, ear and throat infections (acute respiratory disease); parameters: species or system human; conditions: in vivo
Description: One hundred eighty six subjects (186) with diagnosed acute respiratory disease, including upper airway diseases and viral infections, were treated with L-Glu-L-Trp. A control group consisted of 87 untreated subjects. L-Glu-L-Trp was administered daily im or intranasally at a dosage of 100 μg on each of 3-7 consecutive days. […] Secondary infectious complications were diminished in the treated individuals, and the length of time that medical follow-up was required was also diminished.

[3] = tested on: Rauscher MuLV; experiment: Anti-viral response to Rauscher MuLV; assay type: in vivo, mice; conditions: 50 μg/kg
From the text: Innate mechanisms of anti-viral immunity are important to survival of the host. The Rauscher murine leukemia virus (MuLV) is an example of a highly virulent animal retrovirus infection, first isolated and characterized by Dr. Rauscher from BALB/c mouse tissues in 1962. […] The virus employed in present GLP/blinded study was a murine leukemia complex known to induce progressive erythroleukemia in mice (i.e., Rauscher MuLV and replication-defective Rauscher spleen focus-forming virus). Disease manifested within about 6 days with death by about 50 days. Measurements of splenomegaly, blood reverse transcriptase, virus plaque assays (i.e., XC-plaque assay for viremia using SC-1 host cells) and serum anti-viral antibody titers were used to assess infection. Spleens achieved about 2.0 grams in weight within 21 days of infection, as compared with a normal spleen weights in an uninfected animals of about 0.1 gram.
Mice were inoculated with Rauscher MuLV complex (0.1 ml/7.8×10^4 PFU/mL) on day 0 and sacrificed on day 21. Test groups were comprised of 10 mice and control groups 6 mice. Control articles included saline and AZT (in drinking water at about 1.25 mg/mouse/day≈63 mg/kg/day/mouse). […] A non-infected group of mice was also sacrificed on day 21 to provide normal control values.
In EXAMPLE 38, SC-1 cells were originally derived from murine embryos, and XC cells (a rat tumor cell line induced by Rous Sarcoma Virus) were obtained from the ATCC in Rockville, Md.

[4] = Influenza symptoms and sinusitis (Protocol F); assay type: in vivo, human
Description: Summary Overview: Fifty-one patients (51) were treated daily for 3-10 days with either 100 μg L-Glu-L-Trp administered im, or 1 μg/kg administered intranasally. A control group of 24 similar patients remained untreated.

[5] = tested on: cAMP and cGMP; experiment: Splenic lymphocyte cAMP and cGMP, normal, sensitized and anaphylactic animals; assay type: in vivo, guinea pigs; conditions: for cAMP / cAMP/cGMP / cGMP: splenic lymphocytes, 10 μg/kg
Description: Normal guinea pigs (10/group) were treated with 10 μg/kg L-Glu-L-Trp daily on each of five consecutive days and then spleens were removed, lymphocytes isolated, and cyclic AMP and GMP levels determined. To evaluate the effects of L-Glu-L-Trp on immune cells in the face of an ongoing anaphylactic response, splenic lymphocytes were isolated from guinea pigs sensitized for anaphylaxis, or following induction of anaphylactic shock.

[6] = sensitized + anaphylaxis (Group 5)
[7] = sensitized guinea pigs (Group 3)

L-Glu-L-Trp
Survival % 6d ([1]; PDR, 1 μg/kg ip): 50%
Survival % 8d ([1]; PDR, 1 μg/kg ip): 20%
Survival Mean ([1]; PDR, 1 μg/kg ip): 6.2 ± 2.0 days
Kidney Infection ([1]; PDR, 1 μg/kg ip): 58%
Survival % 6d ([1]; PDR, 10 μg/kg ip): 60%
Survival % 8d ([1]; PDR, 10 μg/kg ip): 20%
Survival Mean ([1]; PDR, 10 μg/kg ip): 6.4 ± 2.2 days
Kidney Infection ([1]; PDR, 10 μg/kg ip): 58%
Survival % 6d ([1]; PDR, 100 μg/kg ip): 80%
Survival % 8d ([1]; PDR, 100 μg/kg ip): 40%
Survival Mean ([1]; PDR, 100 μg/kg ip): 7.9 ± 1.9 days
Kidney Infection ([1]; PDR, 100 μg/kg ip): 75%
Survival % 6d ([1]; PDR, 300 μg/kg ip): 80%
Survival % 8d ([1]; PDR, 300 μg/kg ip): 50%
Survival Mean ([1]; PDR, 300 μg/kg ip): 7.8 ± 2.1 days
Kidney Infection ([1]; PDR, 300 μg/kg ip): 58%
Survival % 6d ([1]; TDR, 1 μg/kg ip): 60%
Survival % 8d ([1]; TDR, 1 μg/kg ip): 50%
Survival Mean ([1]; TDR, 1 μg/kg ip): 7.3 ± 2.7 days
Kidney Infection ([1]; TDR, 1 μg/kg ip): 67%
Survival % 6d ([1]; TDR, 10 μg/kg ip): 50%
Survival % 8d ([1]; TDR, 10 μg/kg ip): 30%
Survival Mean ([1]; TDR, 10 μg/kg ip): 6.2 ± 2.2 days
Kidney Infection ([1]; TDR, 10 μg/kg ip): 50%
Survival % 6d ([1]; TDR, 100 μg/kg ip): 80%
Survival % 8d ([1]; TDR, 100 μg/kg ip): 50%
Survival Mean ([1]; TDR, 100 μg/kg ip): 7.8 ± 1.9 days
Kidney Infection ([1]; TDR, 100 μg/kg ip): 75%
Survival % 6d ([1]; TDR, 300 μg/kg ip): 80%
Survival % 8d ([1]; TDR, 300 μg/kg ip): 40%
Survival Mean ([1]; TDR, 300 μg/kg ip): 7.8 ± 2.1 days
Kidney Infection ([1]; TDR, 300 μg/kg ip): 67%
Survival ([1]; prophylactic and therapeutic treatments): significantly increased the number of animals surviving at days 6 and 8
Clinical outcome [2]: milder course of respiratory viral infections
Viremia [3]: significantly decreased viremia
Clinical outcome ([4]; in vivo): reduced nasal mucous swelling, normalization of breathing
Decrease of total duration of patient treatment ([4]; vs control group): up to 1.7 fold
cAMP and cGMP levels ([5]; sensitized and anaphylactic animals): significantly elevated the levels of cAMP and cGMP
cAMP [5, 6]: 210 ± 30 pmole/10^7 cells
cAMP/cGMP [5, 6]: 26 ± 3
cGMP [5, 6]: 7.9 ± 0.5 pmole/10^7 cells
cAMP [5, 7]: 250 ± 30 pmole/10^7 cells
cAMP/cGMP [5, 7]: 22 ± 2
cGMP [5, 7]: 11.2 ± 0.9 pmole/10^7 cells

Reference: patent US6368788B1 (priority 1987, dated 2002)
